Experiments:
[1] = tested on: A375 (BRAF^V600E) malignant melanoma cell; test: A375 Cell Growth Inhibition Assay (CellTiter-Glo); format: cell-based, human; details: for GI50: Homo sapiens, A-375, 72 h, A375 cells, incubated for 3 days, CellTiter-Glo
Procedure: Activity of human A375 (BRAF^V600E) malignant melanoma cell growth inhibition was assessed in vitro using CellTiter-Glo® Luminescent Cell Viability Assay. The assay was performed according to the kit instructions (Promega, cat #G7570). Briefly, A375 cells (ATCC, #CRL-1619™) were seeded in 96-well plates at a density of 2,500 cells/well in 90 and cells were cultured overnight in a humidified, 5% CO2 cell culture incubator at 37° C. 10 μL serial diluted compounds were added into each cell-culture well and incubated for 3 days. […] Reagent was added into each well. The reactions were incubated at Room Temperature for 10 minutes, and luminescence signals were recorded on a Tecan Luminescence Plate Reader. Inhibition data were calculated by comparison to vehicle control wells for 0% inhibition and non-stimulated control wells for 100% inhibition. Dose response curves were then generated to determine the concentration required to suppress 50% of cellular growth response (GI50) as derived by non-linear regression analysis using GraphPad Prism.

[2] = tested on: NCI-H358 (KRAS^G12C) non-small cell lung cancer cell; test: NCI-H358 Cancer Cell Growth Inhibition Assay (CellTiter-Glo); format: cell-based, human; details: for GI50: Homo sapiens, 72 h, NCI-H358 cells, incubated for 3 days, CellTiter-Glo
Procedure: Activity of human NCI-H358 (KRAS^G12C) non-small cell lung cancer cell growth inhibition was assessed in vitro using CellTiter-Glo® Luminescent Cell Viability Assay. The assay was performed according to the kit instructions (Promega, cat #G7570). Briefly, NCI-H358 cells (ATCC, #CRL-5807) were seeded in 96-well plates at a density of 2,500 cells/well in and cells were cultured overnight in a humidified, 5% CO2 cell culture incubator at 37° C. 10 μL serial diluted compounds were added into each cell-culture well and incubated for 3 days. 100 μL CellTiter-Glo® Reagent was added into each well. The reactions were incubated at Room Temperature for 10 minutes, and luminescence signals were recorded on a Tecan Luminescence Plate Reader. Inhibition data were calculated by comparison to vehicle control wells for 0% inhibition and non-stimulated control wells for 100% inhibition. Dose response curves were then generated to determine the concentration required to suppress 50% of cellular growth response (GI50) as derived by non-linear regression analysis using GraphPad Prism.

[3] = tested on: Calu6 (KRAS^Q16K) cancer cell; test: Calu6 Cancer Cell Growth Inhibition Assay (CellTiter-Glo); format: cell-based, human; details: for GI50: Homo sapiens, Calu-6, 72 h, Calu6 cells, incubated for 3 days, CellTiter-Glo
Procedure: Activity of human Calu6 (KRAS^Q16K) cancer cell growth inhibition was assessed in vitro using CellTiter-Glo® Luminescent Cell Viability Assay. The assay was performed according to the kit instructions (Promega, cat #G7570). Briefly, Calu6 cells (ATCC, #HTB-56™) were seeded in 96-well plates at a density of 2,500 cells/well in 90 and cells were cultured overnight in a humidified, 5% CO2 cell culture incubator at 37° C. 10 μL serial diluted compounds were added into each cell-culture well and incubated for 3 days. 100 μL CellTiter-Glo® Reagent was added into each well. The reactions were incubated at Room Temperature for 10 minutes, and luminescence signals were recorded on a Tecan Luminescence Plate Reader. Inhibition data were calculated by comparison to vehicle control wells for 0% inhibition and non-stimulated control wells for 100% inhibition. Dose response curves were then generated to determine the concentration required to suppress 50% of cellular growth response (GI50) as derived by non-linear regression analysis using GraphPad Prism.

human recombinant BRAF = target: T1, human recombinant BRAF (Homo sapiens, UniProt P15056); test: BRAF^WT Inhibition Assay (TR-FRET); format: biochemical
T1 construct: purchased BPS Bioscience 40065
T1 sequence (P15056 whole entry): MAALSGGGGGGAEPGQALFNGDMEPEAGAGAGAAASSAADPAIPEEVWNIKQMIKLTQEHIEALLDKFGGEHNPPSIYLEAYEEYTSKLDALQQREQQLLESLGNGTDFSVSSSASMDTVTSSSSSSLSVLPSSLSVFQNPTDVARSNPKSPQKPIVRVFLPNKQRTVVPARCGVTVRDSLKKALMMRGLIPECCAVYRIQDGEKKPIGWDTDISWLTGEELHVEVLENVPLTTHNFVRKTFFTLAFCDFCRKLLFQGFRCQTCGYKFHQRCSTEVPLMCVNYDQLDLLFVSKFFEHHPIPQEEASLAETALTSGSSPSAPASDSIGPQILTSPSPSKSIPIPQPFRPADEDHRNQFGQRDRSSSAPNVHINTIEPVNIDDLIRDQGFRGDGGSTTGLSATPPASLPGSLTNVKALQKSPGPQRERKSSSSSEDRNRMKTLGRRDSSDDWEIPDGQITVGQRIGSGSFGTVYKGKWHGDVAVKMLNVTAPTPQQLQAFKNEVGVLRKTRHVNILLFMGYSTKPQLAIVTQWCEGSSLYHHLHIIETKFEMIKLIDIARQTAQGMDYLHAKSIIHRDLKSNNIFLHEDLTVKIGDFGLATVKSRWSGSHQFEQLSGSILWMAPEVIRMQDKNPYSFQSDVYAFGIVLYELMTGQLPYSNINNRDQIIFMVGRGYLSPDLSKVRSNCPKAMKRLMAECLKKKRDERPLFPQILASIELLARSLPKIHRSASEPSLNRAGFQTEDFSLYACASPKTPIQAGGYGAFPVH
Procedure: (§1) Activity of human recombinant BRAF were assessed in vitro using time-resolved fluorescence resonance energy transfer (TR-FRET) assay. The assay was performed according to the kit instructions. Briefly, the BRAF enzyme (BPS Bioscience, cat #40065) was diluted to 0.027 ng/μL using the 1× kinase buffer A (Life Tech, cat #PV6135, 5× dilution with H2O); the Fluorescein labeled-MAP2K1 (Life Tech, Cat #PV4812) was diluted to 0.5 μM; ATP (Life Tech, cat #PV3227) was diluted to 20 μM; 2.54, of each diluted reagent was added to a 384-well plate (PerkinElmer, ProxiPlate-384 Plus, 6008280) and mixed together; 2.54, serial diluted compound were added into the mixture. 104, 400-fold diluted LanthaScreen Tb-pMAP2K1 (pSer217/221) antibody (Life Tech, cat #PV4817) was then added to each kinase reaction. The reactions were incubated at Room Temperature for 1 hour. The plate was then read on PHERAstar FSX using 340/490/520 module. Inhibition data were calculated by comparison to vehicle control wells for 0% inhibition and non-stimulated control wells for 100% inhibition. Dose response curves were then generated to determine the concentration required to suppress 50% of enzymatic response (IC50) as derived by non-linear regression analysis using GraphPad Prism.

[4] = target: T2, human recombinant V600E mutant BRAF (Homo sapiens, UniProt P15056, V600E); test: BRAF^V600E Inhibition Assay (TR-FRET); format: biochemical
T2 construct: purchased BPS Bioscience 40533
T2 sequence (P15056 whole entry V600E): as the sequence (P15056 whole entry) above, with V600E counted along it
Procedure: Activity of human recombinant V600E mutant BRAF were assessed in vitro using time-resolved fluorescence resonance energy transfer (TR-FRET) assay. The assay was performed according to the kit instructions. Briefly, the V600E mutant BRAF enzyme (BPS Bioscience, cat #40533) was diluted to 0.027 ng/μL using the 1× kinase buffer A (Life Tech, cat #PV6135, 5× dilution with H2O); the Fluorescein labeled-MAP2K1 (Life Tech, Cat #PV4812) was diluted to 0.5 μM; ATP (Life Tech, cat #PV3227) was diluted to 20 μM; 2.5 μl of each diluted reagent was added to a 384-well (PerkinElmer, ProxiPlate-384 Plus, 6008280) plate and mixed together; 2.54, serial diluted compounds were added into the mixture. 104, 400-fold diluted LanthaScreen Tb-pMAP2K1 (pSer217/221) antibody (Life Tech, cat #PV4817) was then added to each kinase reaction. The reactions were incubated at Room Temperature for 1 hour. The plate was then read on PHERAstar FSX using 340/490/520 module. Inhibition data were calculated by comparison to vehicle control wells for 0% inhibition and non-stimulated control wells for 100% inhibition. Dose response curves were then generated to determine the concentration required to suppress 50% of enzymatic response (IC50) as derived by non-linear regression analysis using GraphPad Prism.

human recombinant cRAF = human recombinant cRAF (Homo sapiens, UniProt P04049); test: cRAF Inhibition Assay (TR-FRET); format: biochemical
Chain of human recombinant cRAF (P04049 whole entry Y340D/Y341D, form open): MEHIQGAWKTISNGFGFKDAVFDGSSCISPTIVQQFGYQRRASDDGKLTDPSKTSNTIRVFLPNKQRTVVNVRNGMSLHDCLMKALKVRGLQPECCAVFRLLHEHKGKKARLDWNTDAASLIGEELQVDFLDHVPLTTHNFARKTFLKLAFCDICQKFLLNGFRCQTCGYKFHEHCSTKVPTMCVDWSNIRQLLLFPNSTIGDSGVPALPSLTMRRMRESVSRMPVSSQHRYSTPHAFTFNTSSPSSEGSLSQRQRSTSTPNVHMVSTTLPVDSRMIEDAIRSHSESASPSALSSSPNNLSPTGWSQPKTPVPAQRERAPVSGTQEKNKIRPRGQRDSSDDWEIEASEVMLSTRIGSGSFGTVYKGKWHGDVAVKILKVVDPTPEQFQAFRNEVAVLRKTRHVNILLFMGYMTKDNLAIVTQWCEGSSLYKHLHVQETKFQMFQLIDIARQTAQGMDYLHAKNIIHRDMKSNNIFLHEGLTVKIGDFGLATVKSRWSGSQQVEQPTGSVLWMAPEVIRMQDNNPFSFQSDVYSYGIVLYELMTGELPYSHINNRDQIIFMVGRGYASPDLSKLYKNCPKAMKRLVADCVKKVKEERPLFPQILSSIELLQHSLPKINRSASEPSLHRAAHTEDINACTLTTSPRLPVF
Procedure: as §1, with “cRAF” for “BRAF”, “#40008)” for “#40065)”

RAF Kinase = details: background statement on the reference compound; cited from earlier work

Structure (SMILES) | cellular potency, A375 ([1]; A375 cancer cell line) | GI50 [1] | cellular potency, H358 ([2]; H358 cancer cell line) | cell growth inhibition in H358 cancer line compared to LXH254 ([2]; H358 cancer line, compared to LXH254) | GI50 [2] | cellular potency, Calu6 ([3]; Calu6 cancer cell line) | GI50 [3] | IC50 (human recombinant BRAF) | IC50 [4] | IC50 (human recombinant cRAF) | potency for bRAF and cRAF (RAF Kinase)
Cc1ccc(NC(=O)c2ccc3c(c2)OC(F)(F)O3)cc1-c1cc(OCCO)nc(N2CCOCC2)c1 [Example 1, 2,2-difluoro-N-(3-(2-(2-hydroxyethoxy)-6-morpholinopyridin-4-yl)-4-methylphenyl)benzo[d][1,3]dioxole-5-carboxamide] | excellent cellular potency | 0.15 µM | excellent cellular potency | better or similar cell growth inhibition | 0.48 µM | excellent cellular potency | 0.064 µM | 0.087 µM | 0.0325 µM | 0.015 µM | –
Cc1ccc(NC(=O)c2ccnc(C(F)(F)F)c2)cc1-c1cc(OCCO)nc(N2CCOCC2)c1 [LXH254, reference compound] | – | 0.89 µM | – | – | 3 µM | – | 0.92 µM | 0.038 µM | 0.043 µM | 0.013 µM | nanomolar potency
